Experimental data: US7868005B2, “Pyrazinyl substituted piperazine-piperidines with CXCR3 antagonist activity” (Schering Corporation, priority 2005, dated 2011)

Each compound was assayed against T1, human CXCR3 (N-delta 4) (Homo sapiens, UniProt P49682) (assay: Human CXCR3 (N-delta 4) Scintillation Proximity Assay (SPA), [125I] IP-10 binding to Ba/F3-hCXCR3 membranes). Details: IC50 rating, Table 1; read-out: IC50.
T1 construct: CD8 leader (N); Flag; expressed in transfected cells; membranes prepared
T1 sequence (P49682 5-368 limits assumed): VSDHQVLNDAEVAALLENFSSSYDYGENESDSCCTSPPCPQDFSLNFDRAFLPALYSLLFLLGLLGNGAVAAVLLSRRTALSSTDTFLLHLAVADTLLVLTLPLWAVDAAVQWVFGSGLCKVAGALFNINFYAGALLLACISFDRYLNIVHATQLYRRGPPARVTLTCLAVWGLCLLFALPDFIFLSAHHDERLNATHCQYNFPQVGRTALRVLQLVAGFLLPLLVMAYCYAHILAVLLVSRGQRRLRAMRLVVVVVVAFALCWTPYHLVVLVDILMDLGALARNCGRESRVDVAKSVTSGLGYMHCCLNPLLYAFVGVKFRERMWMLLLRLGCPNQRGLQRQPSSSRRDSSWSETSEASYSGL

SMILES	IC50 [nM]
CC[C@H]1CN(c2nc(N)c(C(=O)NCCNS(=O)(=O)c3cn(C)cn3)nc2Cl)CCN1C1CCN(Cc2ccc(C#N)cc2)CC1 [compound 237]	> 100
CC[C@H]1CN(c2nc(N)c(C(=O)NCCO)nc2Cl)CCN1C1CCN(Cc2ccc(Cl)cc2C(=O)OC)CC1 [compound 142]	< 25
CC[C@H]1CN(c2nc(N)c(C(=O)NC(CO)CO)nc2Cl)CCN1C1CCN(C(=O)c2ccc(Cl)cc2)CC1 [compound 320]	25 to 100
CC[C@H]1CN(c2nc(N)c(C(=O)NCc3nccs3)nc2Cl)CCN1C1CCN(Cc2ccc(C#N)cc2)CC1 [compound 208]	> 100
CC[C@H]1CN(c2nc(N)c(C(N)=O)nc2Cl)CCN1C1CCN(Cc2ccc(Cl)cc2CC(=O)NC)CC1 [compound 35]	25 to 100
CC[C@H]1CN(c2nc(N)c(C(=O)N=C(N)N)nc2Cl)CCN1C1CCN(Cc2ccc(Cl)cc2F)CC1 [compound 269]	> 100
CC[C@H]1CN(c2nc(N)c(C(=O)NC)nc2Cl)CCN1C1CCN(C(=O)c2ccc(OC(F)(F)F)cc2)CC1 [compound 350]	25 to 100
CC[C@H]1CN(c2nc(N)c(C(=O)N[C@H]3CCOC3=O)nc2Cl)CCN1C1CCN(Cc2ccc(Cl)cc2)CC1 [compound 279]	< 25
CC[C@H]1CN(c2ncc(C(=O)NC3CC3)nc2C)CCN1C1CCN(C(=O)c2ccc(C)c(F)c2)CC1 [compound 459]	< 25
CC[C@H]1CN(c2nc(N)c(C(=O)NC[C@@H](C)O)nc2Cl)CCN1C1CCN(C(=O)c2ccc(Cl)cc2)CC1 [compound 338]	< 25
CC[C@H]1CN(c2nc(N)c(C(=O)NC)nc2Cl)CCN1C1CCN(C(=O)C2CCc3ccccc3C2)CC1 (stereo partly drawn) [compound 370]	< 25
CC[C@H]1CN(c2nc(N)c(C(=O)NCCO)nc2Cl)CCN1C1CCN(Cc2ccc(Cl)cc2OCC(N)=O)CC1 [compound 149]	< 25
CC[C@H]1CN(c2nc(N)c(C(N)=O)nc2Cl)CCN1C1CCN(Cc2ccc(Cl)cc2CC#N)CC1 [compound 33]	25 to 100
CC[C@H]1CN(c2nc(NCc3ccc(F)c(F)c3)c(C(=O)NCCNS(N)(=O)=O)nc2Cl)CCN1C1CCN(Cc2ccc(F)c(F)c2)CC1 [compound 256]	< 25
CC[C@H]1CN(c2nc(N)c(C(=O)NCCO)nc2Cl)CCN1C1CCN(C(CCOC)c2ccc(Cl)cc2)CC1 (stereo partly drawn) [compound 187]	25 to 100
CC[C@H]1CN(c2nc(N)c(C(=O)NC3CC3)nc2C)[C@H](C)CN1C1CCN(C(=O)c2ccc(Cl)cc2)CC1 [compound 480]	< 25
CC[C@H]1CN(c2ncc(C(=O)OC)nc2C)[C@H](C)CN1C1CCN([C@@H](CO)c2ccc(Cl)cc2)CC1 [compound 465]	< 25
CC[C@H]1CN(c2nc(N)c(C(=O)NCCCN3CCCS3(=O)=O)nc2Cl)CCN1C1CCN(Cc2ccc(C#N)cc2)CC1 [compound 275]	> 100
CC[C@H]1CN(c2nc(N)c(C(=O)NCCO)nc2Cl)CCN1C1CCN(C(=O)c2cc(F)c(F)cc2NC(=O)c2cc(F)c(F)cc2N)CC1 [compound 363]	> 100
CC[C@H]1CN(c2nc(N)c(C(N)=O)nc2Cl)CCN1C1CCN(Cc2ccc(Cl)cc2)[C@H](C(N)=O)C1 (stereo partly drawn) [compound 282]	25 to 100

SMILES	IC50 [nM]
CCNC(=O)NCCC(c1ccc(Cl)cc1)N1CCC(N2CCN(c3nc(N)c(C(=O)NCCO)nc3Cl)C[C@@H]2CC)CC1 (stereo partly drawn) [compound 148]	< 25
CC[C@H]1CN(c2nc(N)c(C(=O)NCCN)nc2Cl)CCN1C1CCN(Cc2ccc(Cl)cc2C#N)CC1 [compound 234]	25 to 100
CC[C@H]1CN(c2nc(N)c(C(=O)NC3CC3)nc2Cl)CCN1C1CCN(Cc2ccc(C#N)cc2OCCOC)CC1 [compound 89]	< 25
CC[C@H]1CN(c2nc(N)c(C(=O)NCCO)nc2Cl)CCN1C1CCN(Cc2ccc(C#N)cc2OCCN2CCCC2=O)CC1 [compound 193]	> 100
CC[C@H]1CN(c2nc(N)c(C(N)=O)nc2Cl)CCN1C1CCN(Cc2ccc(Cl)cc2[C@@H](O)C(N)=O)CC1 [compound 28]	25 to 100
COC(=O)c1nc(Cl)c(N2C[C@H](C)N(C3CCN(Cc4ccc(Cl)cc4F)CC3)C[C@H]2C)nc1N [compound 301]	> 100
CC[C@H]1CN(c2nc(N)c(C(N)=O)nc2Cl)CCN1C1CCN(Cc2ccc(Cl)cc2C(=N)N)CC1 [compound 2]	< 25
CC[C@H]1CN(c2nc(N)c(C(=O)NCCNS(C)(=O)=O)nc2Cl)CCN1C1CCN(Cc2ccc(Cl)cc2)CC1 [compound 245]	< 25
CNC(=O)c1nc(Cl)c(N2CCN(C3CCN(Cc4ccc(Cl)cc4)CC3)[C@@H](C)C2)nc1N [compound 65]	< 25
CC[C@H]1CN(c2ncc(C(N)=O)nc2Cl)CCN1C1CCN(Cc2ccc(Cl)cc2[C@@H](O)C(N)=O)CC1 [compound 286]	< 25
CC[C@H]1CN(c2nc(N)c(C(=O)NC(=N)NC)nc2Cl)CCN1C1CCN(Cc2ccc(Cl)cc2)CC1 [compound 390]	< 25
CC[C@H]1CN(c2nc(N)c(C(=O)NC(=N)NC)nc2Cl)CCN1C1CCN(C(=O)c2ccc(F)c(F)c2)CC1 [compound 398]	< 25
CC[C@H]1CN(c2nc(N)c(C(=O)NC)nc2Cl)CCN1C1CCN(C(=O)c2ccc(Cl)c(N)c2)CC1 [compound 365]	> 100
CC[C@H]1CN(c2nc(N)c(C(=O)NCCO)nc2Cl)CCN1C1CCN(Cc2cc(F)c(F)c(F)c2O)CC1 [compound 181]	25 to 100
CC[C@H]1CN(c2ncc(C(=O)NC)nc2NC)CCN1C1CCN(C(=O)c2ccc(Cl)cc2)CC1 [compound 384]	> 100
CC[C@H]1CN(c2ncc(C(=O)NC)nc2C)CCN1C1CCN(C(=O)c2ccc(F)c(Cl)c2)CC1 [compound 456]	< 25
CC[C@H]1CN(c2nc(N)c(C(N)=O)nc2Cl)CCN1C1CCN(Cc2ccc(Cl)cc2CC(=O)N2CCOCC2)CC1 [compound 55]	> 100
CC[C@H]1CN(c2ncc(C(=O)NC3CC3)nc2C(F)(F)F)CCN1C1CCN(C(=O)c2ccc(Cl)cc2)CC1 [compound 489]	< 25
CC[C@H]1CN(c2nc(N)c(C(=O)NCCO)nc2Cl)CCN1C1CCN(Cc2ccc(Cl)cc2F)CC1 [compound 113]	< 25
CCNC(=O)Nc1cc(Cl)ccc1CN1CCC(N2CCN(c3nc(N)c(C(=O)NCCO)nc3Cl)C[C@@H]2CC)CC1 [compound 157]	< 25

SMILES	IC50 [nM]
CC[C@H]1CN(c2nc(N)c(C(=O)NCC(=O)O)nc2Cl)CCN1C1CCN(Cc2ccc(Cl)cc2)CC1 [compound 105]	> 100
CC[C@H]1CN(c2nc(N)c(C(=O)NCCO)nc2Cl)CCN1C1CCN(Cc2ccc(Cl)cc2CO)CC1 [compound 107]	< 25
CC[C@H]1CN(c2nc(N)c(C(=O)NCCO)nc2Cl)CCN1C1CCN(Cc2c(O)cc(Cl)cc2Cl)CC1 [compound 186]	25 to 100
CC[C@H]1CN(c2nc(N)c(C(N)=O)nc2Cl)CCN1C1CCN(Cc2ccc(Cl)cc2C(C)CO)CC1 (stereo partly drawn) [compound 14]	< 25
CC[C@H]1CN(c2ncc(C(=O)NC3CC3)nc2C)CCN1C1CCN([C@@H](C(=O)OC)c2ccc(Cl)cc2)CC1 [compound 485]	< 25
CC[C@H]1CN(c2nc(N)c(C(=O)N3CCN(C(=O)OC(C)(C)C)CC3)nc2Cl)CCN1C1CCN(Cc2ccc(Cl)cc2)CC1 [compound 312]	> 100
CC[C@H]1CN(c2nc(N)c(C(=O)NCCO)nc2Cl)CCN1C1CCN([C@H](CO)c2ccc(F)c(F)c2)CC1 [compound 182]	25 to 100
CC[C@H]1CN(c2nc(N)c(C(N)=O)nc2Cl)CCN1C1CCN(Cc2ccc(Cl)cc2C(=O)OC)CC1 [compound 31]	25 to 100
CC[C@H]1CN(c2nc(N)c(C(=O)NCCO)nc2Cl)CCN1C1CCN(Cc2cc(F)c(Cl)cc2OCCOC)CC1 [compound 143]	< 25
CC[C@H]1CN(c2ncc(C(=O)NC3CC3)nc2C)CCN1C1CCN([C@H](CO)c2ccc(F)c(F)c2)CC1 [compound 472]	< 25
CC[C@H]1CN(c2nc(N)c(C(=O)NN)nc2Cl)CCN1C1CCN(Cc2ccc(Cl)cc2)CC1 [compound 271]	< 25
CC[C@H]1CN(c2nc(N)c(C(N)=O)nc2Cl)CCN1C1CCN(Cc2ccc(Cl)cc2CCNC(=O)OC)CC1 [compound 39]	25 to 100
CC[C@H]1CN(c2nc(N)c(C(=O)NCCNS(N)(=O)=O)nc2Cl)CCN1C1CCN([C@H](CO)c2ccc(Cl)cc2)CC1 [compound 262]	> 100
CC[C@H]1CN(c2nc(N)c(C(N)=O)nc2Cl)CCN1C1CCN(Cc2ccc(Cl)cc2C2COC(=O)O2)CC1 (stereo partly drawn) [compound 24]	25 to 100
CC[C@H]1CN(c2nc(N)c(C(N)=O)nc2Cl)CCN1C1CCN(Cc2ccc(Cl)cc2CCNC(N)=O)CC1 [compound 34]	25 to 100
CC[C@H]1CN(c2ncc(C(N)=O)nc2C)[C@H](C)CN1C1CCN(Cc2ccc(OC(F)(F)F)cc2)CC1 [compound 466]	< 25
CC[C@H]1CN(c2ncc(C(=O)NC3CC3)nc2C)CCN1C1CCN(C(=O)c2ccc(F)c(OC)c2)CC1 [compound 467]	< 25
CC[C@H]1CN(c2nc(N)c(C(N)=O)nc2Cl)CCN1C1CCN([C@@H](C(=O)O)c2ccc(Cl)cc2)CC1 [compound 40]	25 to 100
CC[C@H]1CN(c2nc(N)c(C(=O)NCCO)nc2Cl)CCN1C1CCN(Cc2ccc(Cl)cc2C2=NCCN2)CC1 [compound 167]	< 25
CC[C@H]1CN(c2nc(N)c(C(=O)NCCNS(C)(=O)=O)nc2Cl)CCN1C1CCN(Cc2ccc(C#N)cc2)CC1 [compound 247]	25 to 100

Same assay, conditions: human; read-out: human IC50

SMILES	IC50 [nM]
CC[C@H]1CN(c2nc(N)c(C(=O)NCCO)nc2Cl)CCN1C1CCN(Cc2ccc(Cl)cc2CO)CC1 [Formula 7]	< 1
CC[C@H]1CN(c2nc(N)c(C(=O)NC)nc2Cl)CCN1C1CCN(Cc2ccc(Cl)cc2)CC1 [Formula 9]	< 1

Same assay, conditions: read-out: IC50

SMILES	IC50 [nM]
CC[C@H]1CN(c2nc(N)c(C(=O)NCCO)nc2Cl)CCN1C1CCN(Cc2ccc(Cl)cc2CO)CC1 [compound 107]	0.2
